The text below walks through data of article PMC12365674, “Diverse metabolites with anti-psoriasis potential from different fermentations of the fungicolous fungus Xylarialongipes HFG1018” (IMA Fungus, 2025).

“Also recorded” adds a separate entry of the source. Like-named read-outs stand apart in the source and are kept apart here.

The subject of data set [1] is ConA-induced T lymphocytes. The data set can be described thus: Anti-proliferative activity against ConA-induced T lymphocytes (CCK-8). The format is cell-based. Particulars: Mus musculus, T-lymphocyte; for IC50: induced proliferation of T lymphocytes (ConA), CCK-8, read-out: T cells IC50. The method, then: (§1) As previously described, the immunosuppressive activity, lymphocyte viability, and antiproliferative activity against HaCaT cells were evaluated using the CCK-8 method ([Zhao et al. 2023], [2024]).
(§2) In the immunosuppressive and lymphocyte viability, the primary tested concentration of all compounds was 20.0 μM, and dexamethasone (Dex) (c = 2.0 μM) was used as a positive control. In the antiproliferative activity against HaCaT cells, the primary tested concentration of all compounds was 40 μM, and the positive control was methotrexate (MTX) (c = 40.0 μM). When the inhibition rates are greater than 50%, the IC50 values of active compounds will be further tested and calculated. All experiments were performed in triplicate.

The subject of data set [2] is LPS-induced B lymphocytes. The data set can be described thus: Anti-proliferative activity against LPS-induced B lymphocytes (CCK-8). The format is cell-based, mouse. Conditions: for IC50: induced proliferation of B lymphocytes (LPS), CCK-8, read-out: B cells IC50. The method, then: as §1, §2
Data set [3] can be described thus: Lymphocyte viability (CCK-8). Conditions: mouse, lymphocytes; lymphocyte viability; CCK-8. The format is cell-based, mouse. The method, then:
as §1, §2

Data set [4] relates to HaCaT cells. The data set can be described thus: Antiproliferative activity against HaCaT cells (CCK-8). Conditions: Homo sapiens, HaCaT, read-out: IC50 against the proliferation of HaCaT cells. It is filed as cell-based. The method, then:
as §1, §2

Data set [5] deals with HaCaT cells. The data set can be described thus: EdU proliferation assay, HaCaT cells. Conditions: c = 20 μM; compared to the control group. It is filed as cell-based. The method, then:
(§3) EdU fluorescence labeling for cell proliferation of induced T/B lymphocytes (2 × 10^5 cells/well) and HaCaT cells (1 × 10^4 cells/well) of active compounds 10, 19, 23, 32, 38, and 41 (final concentration 10 or 20 μM) was performed as previously reported ([Biram and Shulman 2020]; [Zhao et al. 2024]). EdU (HF488) (the Click-iT™ EdU Flow Cytometry Assay Kit, APExBIO, USA) was added 24 h (final concentration 50 μM, T and B cells) and 4 h (final concentration 10 μM, HaCaT cells) before harvesting the cells. All procedures were performed according to the manufacturer’s instructions for the click reaction. EdU-positive cells and proliferating phase cells were analyzed with a fluorescence microscope.

The test system of data set [6] is NF-κB p65 phosphorylation. The data set can be described thus: Immunofluorescence of p-p65/p65 in HaCaT cells. The format is cell-based. Particulars: 36 h. The method, then: The immunofluorescence protocol was performed using the reported method ([Zhao et al. 2024]). HaCaT cells (2.0 × 10^5 cells/well) were plated onto 6-well plates with glass coverslips and adhered overnight (12 h) before compound addition. After treatment with active compounds 10 (final concentration 31 μM) and 32 (final concentration 27 μM) for 36 h, the supernatant was removed, and the cells were washed twice with PBS, fixed with 4% paraformaldehyde for 15 min, and then washed with PBS three times. After blocking, incubated with NF-κB p65 (p65)/phosphorylated NF-κB p65 (p-p65) antibodies and secondary antibodies (Servicebio, China). Then, cells were counterstained with 4,6-[…]-2-phenylindole (DAPI) for 5 min. After the PBS washing, fluorescent seal liquid was added, and the plate was monitored under an imaging system (Pannoramic MIDI, 3Dhistech, Hungary). The nucleus is blue, and positive cells are green (p-p65) or red (p65). The immunofluorescence areas for each indicator were analyzed in ImageJ.

Data set [7] concerns lymphocytes. The data set is described as follows: Lymphocyte viability (CCK-8). The format is cell-based, mouse. Particulars: c = 20 μM. The method, then:
as §1, §2

The test system of another data set is IFN-γ. The data set can be described thus: Cytokine analysis by ELISA of induced T cells: IFN-γ. It is filed as cell-based, mouse. Particulars: ConA-induced T cells, 48 h; all sample groups; P < 0.0001 vs. model. The method, then:
(§4) The mononuclear cell suspensions (2 × 10^5 cells/well) were cultured with ConA (5 μg/mL) in 96-well plates, and indicated concentrations of compounds 2, 15, and 32 were added simultaneously. After a 48-hour culture period, cytokines in the supernatants were quantified using mouse IFN-γ, IL-2, and IL-17A ELISA kits (Mabtech, Sweden), following the manufacturer’s protocol ([Jing et al. 2021]; [Zhao et al. 2024]).
(An ELISA detects its analyte on a solid surface through an enzyme-linked reagent.)

The test system of another data set is IL-2. The data set can be described thus: Cytokine analysis by ELISA of induced T cells: IL-2. It is filed as cell-based, mouse. Conditions: 40 μM; ConA-induced T cells, 48 h; P < 0.01 vs. model. The method, then: as §4
The subject of data set [8] is ConA-induced T lymphocytes. The data set can be described thus: Anti-proliferative activity against ConA-induced T lymphocytes (CCK-8). The format is cell-based. Particulars: Mus musculus, T-lymphocyte, c = 40 μM, read-out: Inhibition rate (%) T.
Data set [9] has as its system LPS-induced B lymphocytes. The data set is described as follows: Anti-proliferative activity against LPS-induced B lymphocytes (CCK-8). The format is cell-based. Particulars: Mus musculus, Lymphocyte, c = 40 μM, read-out: Inhibition rate (%) B.
Data set [10] relates to lymphocytes. The data set is described as follows: Lymphocyte viability (CCK-8). The format is cell-based, mouse. Particulars: c = 40 μM.
For data set [11], the system named is induced T cells (Con A 5 μg/mL). The data set is described as follows: EdU proliferation assay, induced T cells. Particulars: c = 10 μM; relative to the model group. The format is cell-based, mouse. The method, then: as §3
The subject of data set [12] is induced B cells (LPS 15 μg/mL). The data set can be described thus: EdU proliferation assay, induced B cells. The format is cell-based, mouse. Particulars: c = 10 μM; relative to the model group. The method, then: as §3
A further data set relates to IL-17A. The data set can be described thus: Cytokine analysis by ELISA of induced T cells: IL-17A. It is filed as cell-based, mouse. Particulars: 10 μM; ConA-induced T cells, 48 h; P < 0.01 vs. model. The method, then: as §4

For `CCC1=Cc2c(occ(COC)c2=O)CC1` [Compound 10, 6-ethyl-3-(methoxymethyl)-7,8-dihydro-4H-chromen-4-one], the IC50 is above 20 µM in data set [1]; 8 ± 0.7 µM in data set [2] (Mus musculus, Lymphocyte); 30.9 ± 2.7 µM with HaCaT cells [4]. For the same molecule, the 50% cytotoxic concentration (CC50) in [3] was above 20 µM. The “proliferation rates of HaCaT cells measured by EdU” value in the data set with HaCaT cells [5] is reported as “significantly reduced”. In addition, the “NF-κB activation (ratio p-p65/p65)” value in [6] (31.0 μM, P < 0.0001 vs. Con) was “significantly attenuated NF-κB activation”.

Consider `C[C@]1(CCO)CC[C@H]2C(=CC[C@@H]3[C@]2(C)CCC[C@]3(C)C(=O)O)C1` [Compound 15, 16-hydroxyisopimar-7-en-19-oic acid], for which the inhibition at 20 µM was 26.4 ± 6.3% in data set [1] (c = 20 μM, ConA-induced T lymphocytes, read-out: Inhibition rate (%) T) and 23 ± 4.3% in data set [2] (Mus musculus, Lymphocyte, c = 20 μM, LPS-induced B lymphocytes, read-out: Inhibition rate (%) B). The “Cell validity (%)” value in the data set on lymphocytes [7] is 89.9 ± 7.5%; with lymphocytes [10], 80.2 ± 1.8%. For the same molecule, the IFN-γ secretion result with IFN-γ is reported as “significant reduction; also recorded: significantly reduced”. For the same molecule, the IL-2 levels entry in the data set on IL-2 is on record as “significantly reduced”. The values for the inhibition at 40 µM in data set [8] and in data set [9] were 28.8 ± 5.8% and 29 ± 12.2%, respectively.

As to `CO[C@@H]1C=C2[C@@H]3CC[C@H]([C@H](C)/C=C/[C@H](C)C(C)C)[C@@]3(C)CC[C@@H]2[C@@]2(C)CC[C@H](O)C[C@]12O` [Compound 32, (3β,5α,6β,22E)-6-methoxyergosta-7,22-diene-3,5-diol], the IC50 was 3.1 ± 0.2 µM in data set [1]; 8 to 20 µM in [2] (Mus musculus, Lymphocyte); 6 ± 0.3 µM in data set [2]; 27 ± 1.3 µM with HaCaT cells [4]. Further, the CC50 in data set [3] was above 20 µM. Moreover, the “proliferation of induced T cells measured by EdU” value in data set [11] is listed as “significantly suppressed the proliferation”. For the same molecule, in data set [12], the “proliferation of induced B cells measured by EdU” value is “significantly suppressed the proliferation”. The “proliferation rates of HaCaT cells measured by EdU” value with HaCaT cells [5] is “significantly reduced”. Further, the IFN-γ secretion entry in the data set on IFN-γ is “significant reduction; also recorded: significantly reduced”. In addition, the IL-17A levels entry with IL-17A is “markedly lowered; also recorded: inhibiting IL-17A secretion”. In addition, in [6] (27.0 μM, P < 0.01 vs. Con), the “NF-κB activation (ratio p-p65/p65)” value is reported as “significantly attenuated NF-κB activation”.

Usually CC50 stands for the concentration that lowers cell viability or growth by half. High values mean lower toxicity to the cells, low ones greater toxicity to the cells. A word on the inhibition: it is the percentage by which the read-out fell short of the control.
